Like-named read-outs stand apart in the source and are kept apart here.
What was measured:
pFGFR4 in Huh7 cells = assay: FGFR4 signaling, pFGFR4 (Huh); MSD (Method B); assay type: cell-based; details: Homo sapiens
[1] = test system: pFGFR4 in MDA-MB-453 cells; assay: FGFR4 signaling, pFGFR4 (MDA); Western blot (Method A), MSD (Method B), ELISA (Method C); assay type: cell-based; details: Method B (MSD) for signaling EC50 determination
Procedure: The MDA-MB-453 protein concentrations were determined by a BCA Assay (Pierce, Rockford, Ill.). A sample of 50-100 μg of each lysate was separated by a 4-12% gradient (SDS-PAGE (Invitrogen)), transferred to a nitrocellulose membrane (Biorad, Hercules, Calif.), and probed with specific antibodies. Phospho-protein signals were quantitated using Odyssey Infrared Imaging (Li-Cor Biosciences).
To assess phospho-FGFR signaling, the blots were probed with anti-Phospho-FGFR (Y653/Y654) and total anti-FGFR antibodies. The phospho-FGFR signal was normalized to total FGFR expression for each sample.

[2] = Huh-7, Huh7 cells, read-out: Signaling EC50 (nM) pFGFR4 (Huh)
[3] = Homo sapiens, MDA-MB-453, MDA-MB-453 cells

EC50 ([1]; Homo sapiens, MDA-MB-453 cells) [nM] | SMILES | other results
 | C=CC(=O)NC1COCC1Nc1ncc2c(n1)N(C)C(=O)N(c1cc(C(=O)Nc3cccc(C(C)(C)C)c3)ccc1Cl)C2 (stereo not drawn) [Compound I-247] | EC50 (pFGFR4 in Huh7 cells; [2]): < 100 nM
 | C=CC(=O)NC1COCC1Nc1ncc2c(n1)N(C)C(=O)N(c1cc(OC)c(OC)c(OC)c1)C2 (stereo not drawn) [Compound I-207] | EC50 (pFGFR4 in Huh7 cells; [2]): > 1000 nM
 | C=CC(=O)Nc1cc(F)ccc1Nc1ncc2cc(-c3c(Cl)c(OC)cc(OC)c3Cl)c(=O)n(C)c2n1 [Compound I-245] | EC50 (pFGFR4 in Huh7 cells; [2]): < 100 nM
 | C=CC(=O)NC1CN(c2ccncn2)CC1Nc1ncc2c(n1)N(C)C(=O)N(c1c(Cl)c(OC)cc(OC)c1Cl)C2 (stereo not drawn) [Compound I-201] | EC50 (pFGFR4 in Huh7 cells; [2]): 101 to 500 nM
 | C=CC(=O)Nc1cc(C)ccc1Nc1ncc2cc(-c3c(Cl)c(OC)cc(OC)c3Cl)c(=O)n(C)c2n1 [Compound I-243] | EC50 (pFGFR4 in Huh7 cells; [2]): < 100 nM
 | C=CC(=O)Nc1ccccc1Nc1ncc2cc(-c3c(Cl)c(OC)cc(OC)c3Cl)c(=O)n(C)c2n1 [Compound I-244] | EC50 (pFGFR4 in Huh7 cells; [2]): < 100 nM
 | C=CC(=O)NC1COCC1Nc1ncc2c(n1)N(Cc1ccn(C)n1)C(=O)N(c1c(Cl)c(OC)cc(OC)c1Cl)C2 (stereo not drawn) [Compound I-215] | EC50 (pFGFR4 in Huh7 cells; [2]): < 100 nM
 | C=CC(=O)N[C@H]1CCCC[C@H]1Nc1ncc2cc(-c3c(Cl)c(OC)cc(OC)c3Cl)c(=O)n(C)c2n1 [Compound I-223] | EC50 (pFGFR4 in Huh7 cells; Huh-7, read-out: Signaling EC50 (nM) pFGFR4 (Huh)): < 100 nM
< 100 | C=CCN1C(=O)N(c2cc(OC)cc(OC)c2)Cc2cnc(Nc3ccccc3NC(=O)C=C)nc21 [Compound I-32] | 
 | C=CC(=O)Nc1cc(C(F)(F)F)ccc1Nc1ncc2c(n1)N(Cc1ccccc1)C(=O)N(c1c(Cl)c(OC)cc(OC)c1Cl)C2 [Compound I-10] | EC50 ([1]; MDA-MB-453 cells): > 1000 nM
 | C=CC(=O)Nc1ccccc1Nc1ncc2c(n1)N(Cc1cccc(F)c1)C(=O)N(c1c(Cl)c(OC)cc(OC)c1Cl)C2 [Compound I-12] | EC50 [1, 3]: < 100 nM
 | C=CC(=O)Nc1ccccc1Nc1ncc2c(n1)N(CC)C(=O)N(CC)C2 [Compound I-120] | EC50 [1, 3]: > 1000 nM
< 100 | C=CC(=O)Nc1ccccc1Nc1ncc2c(n1)N(Cc1cscn1)C(=O)N(c1c(Cl)c(OC)cc(OC)c1Cl)C2 [Compound I-86] | 
101 to 500 | C=CC(=O)Nc1ccc(N2CCN(CC)CC2)cc1Nc1ncc2c(n1)N(C)C(=O)N(c1cc(OC)cc(OC)c1)C2 [Compound I-30] | 
 | C=CC(=O)Nc1ccccc1Oc1ncc2c(n1)N(C)C(=O)N(c1c(Cl)c(OC)cc(OC)c1Cl)C2 [Compound I-65] | EC50 [1, 3]: 101 to 500 nM
< 100 | C=CC(=O)N[C@H]1CCCC[C@H]1Nc1ncc2c(n1)N(Cc1ccccc1)C(=O)N(c1c(Cl)c(OC)cc(OC)c1Cl)C2 [Compound I-82] | 
 | C=CC(=O)NC1CCCCC1Nc1ncc2c(n1)N(C1CCCNC1)C(=O)N(c1cc(OC)cc(OC)c1)C2 (racemic) [Compound I-46] | EC50 [1, 3]: > 1000 nM
< 100 | C=CC(=O)N[C@H]1CCCC[C@H]1Nc1ncc2c(n1)N(Cc1cn[nH]c1)C(=O)N(c1c(Cl)c(OC)cc(OC)c1Cl)C2 [Compound I-152] | 
101 to 500 | C=CC(=O)Nc1cc(OCCOC)ccc1Nc1ncc2c(n1)N(Cc1ccccc1)C(=O)N(c1cc(OC)cc(OC)c1)C2 [Compound I-14] | 
 | C=CC(=O)NC1CCCCC1Nc1ncc2c(n1)N(C)C(=O)N(c1cc(OC)cc(OC)c1)C2 (racemic) [Compound I-18] | EC50 [1, 3]: > 1000 nM

EC50 ([1]; Homo sapiens, MDA-MB-453 cells) [nM] | SMILES | other results
 | C=CC(=O)Nc1ccccc1Nc1ncc2c(n1)N(CC(=O)OC(C)(C)C)C(=O)N(c1cc(OC)cc(OC)c1)C2 [Compound I-96] | EC50 [1, 3]: > 1000 nM
 | C=CC(=O)Nc1ccccc1Nc1ncc2c(n1)N(Cc1nccs1)C(=O)N(c1c(Cl)c(OC)cc(OC)c1Cl)C2 [Compound I-91] | EC50 [1, 3]: < 100 nM
< 100 | C=CC(=O)Nc1cc(N2CCOCC2)ccc1Nc1ncc2c(n1)N(C)C(=O)N(c1cc(OC)cc(OC)c1)C2 [Compound I-17] | 
< 100 | C=CC(=O)Nc1ccccc1Nc1ncc2c(n1)N(CC(F)F)C(=O)N(c1c(Cl)c(OC)cc(OC)c1Cl)C2 [Compound I-103] | 
< 100 | C=CC(=O)Nc1cc(-c2cnn(C)c2)ccc1Nc1ncc2c(n1)N(C)C(=O)N(c1cc(OC)cc(OC)c1)C2 [Compound I-77] | 
101 to 500 | C=CC(=O)NC1CCCCC1Nc1ncc2c(n1)N(C1CCC1)C(=O)N(c1c(Cl)c(OC)cc(OC)c1Cl)C2 (racemic) [Compound I-70] | 
 | CCC(=O)Nc1ccccc1Nc1ncc2c(n1)N(Cc1ccccc1)C(=O)N(c1c(Cl)c(OC)cc(OC)c1Cl)C2 [Compound I-236] | EC50 [1, 3]: 101 to 500 nM
< 100 | C=CC(=O)Nc1ccccc1Nc1ncc2c(n1)N(C1CC1)C(=O)N(c1cc(OC)cc(OC)c1)C2 [Compound I-34] | 
 | C=CC(=O)N[C@@H]1CCCC[C@@H]1Nc1ncc2c(n1)N(Cc1nccs1)C(=O)N(c1c(Cl)c(OC)cc(OC)c1Cl)C2 [Compound I-93] | EC50 [1, 3]: > 1000 nM
< 100 | C=CC(=O)Nc1cc(C(=O)NC2CCN(C)CC2)ccc1Nc1ncc2c(n1)N(C)C(=O)N(c1c(Cl)c(OC)cc(OC)c1Cl)C2 [Compound I-150] | 
> 1000 | C=CC(=O)Nc1cc(Cl)c(Cl)cc1Nc1ncc2c(n1)N(Cc1ccccc1)C(=O)N(c1c(Cl)c(OC)cc(OC)c1Cl)C2 [Compound I-11] | 
< 100 | C=CC(=O)Nc1cc(C2=CCN(CC)CC2)ccc1Nc1ncc2c(n1)N(C)C(=O)N(c1cc(OC)cc(OC)c1)C2 [Compound I-56] | 
 | C=CC(=O)NC1CCCCC1Nc1ncc2c(n1)N(CC1CC1)C(=O)N(c1cc(OC)cc(OC)c1Cl)C2 (stereo not drawn) [Compound I-101] | EC50 [1, 3]: 101 to 500 nM
< 100 | C=CC(=O)Nc1ccccc1Nc1ncc2c(n1)N(Cc1csc(C)n1)C(=O)N(c1c(Cl)c(OC)cc(OC)c1Cl)C2 [Compound I-134] | 
< 100 | C=CC(=O)NCc1ccccc1Nc1ncc2c(n1)N(C)C(=O)N(c1c(Cl)c(OC)cc(OC)c1Cl)C2 [Compound I-181] | 
 | C=CC(=O)NC1CCCCC1Nc1ncc2c(n1)N(C1CCCN(C(=O)OC(C)(C)C)C1)C(=O)N(c1cc(OC)cc(OC)c1)C2 (racemic) [Compound I-45] | EC50 [1, 3]: > 1000 nM
> 1000 | C=CC(=O)Nc1ccccc1Nc1ncc2c(n1)N(C)C(=O)N(C1CCCCC1)C2 [Compound I-52] | 
< 100 | C=CC(=O)Nc1cc(N2CCN(C(=O)CCC(=O)O)CC2)ccc1Nc1ncc2c(n1)N(C)C(=O)N(c1c(Cl)c(OC)cc(OC)c1Cl)C2 [Compound I-123] | 
101 to 500 | C=CC(=O)Nc1ccccc1Nc1ncc2c(n1)N(CC1CCN(C(=O)OC(C)(C)C)CC1)C(=O)N(c1cc(OC)cc(OC)c1)C2 [Compound I-60] | 
< 100 | C=CC(=O)Nc1ccccc1Nc1ncc2c(n1)N(Cc1ccn(C)n1)C(=O)N(c1c(Cl)c(OC)cc(OC)c1Cl)C2 [Compound I-136] | 

EC50 ([1]; Homo sapiens, MDA-MB-453 cells) [nM] | SMILES | other results
 | COc1cc(OC)cc(N2Cc3cnc(Nc4ccccc4)nc3N(C)C2=O)c1 [Compound I-237] | EC50 [1, 3]: 101 to 500 nM
 | CCC(=O)Nc1ccccc1Nc1ncc2c(n1)N(C)C(=O)N(c1c(Cl)c(OC)cc(OC)c1Cl)C2 [Compound I-235] | EC50 [1, 3]: 501 to 999 nM
< 100 | C=CC(=O)Nc1ccccc1Nc1ncc2c(n1)N(Cc1cccc(OC)c1)C(=O)N(c1c(Cl)c(OC)cc(OC)c1Cl)C2 [Compound I-28] | 
> 1000 | C=CC(=O)N[C@@H]1CCCC[C@@H]1Nc1ncc2c(n1)N(Cc1ccccc1)C(=O)N(c1c(Cl)c(OC)cc(OC)c1Cl)C2 [Compound I-66] | 
 | C=CC(=O)Nc1ccccc1Nc1ncc2nc(-c3cc(OC)cc(OC)c3)c(=O)n(C)c2n1 [Compound I-128] | EC50 [1, 3]: > 1000 nM
101 to 500 | C=CC(=O)NC1CCCC1Nc1ncc2c(n1)N(C)C(=O)N(c1c(Cl)c(OC)cc(OC)c1Cl)C2 (racemic) [Compound I-112] | 
101 to 500 | C=CC(=O)NC1CCCCC1Nc1ncc2c(n1)N(Cc1cccnc1)C(=O)N(c1c(Cl)c(OC)cc(OC)c1Cl)C2 (racemic) [Compound I-35] | 
101 to 500 | C=CC(=O)Nc1cc(N2CCCCC2)ccc1Nc1ncc2c(n1)N(C)C(=O)N(c1cc(OC)cc(OC)c1)C2 [Compound I-31] | 
< 100 | C=CC(=O)N[C@H]1CCCC[C@H]1Nc1ncc2c(n1)N(Cc1cnn(C)c1)C(=O)N(c1c(Cl)c(OC)cc(OC)c1Cl)C2 [Compound I-148] | 
< 100 | C=CC(=O)Nc1ccc(-c2cnn(C)c2)cc1Nc1ncc2c(n1)N(C)C(=O)N(c1c(Cl)c(OC)cc(OC)c1Cl)C2 [Compound I-74] | 
< 100 | C=CCCN1C(=O)N(c2cc(OC)cc(OC)c2)Cc2cnc(Nc3ccccc3NC(=O)C=C)nc21 [Compound I-57] | 
< 100 | C=CC(=O)Nc1ccccc1Nc1ncc2c(n1)N(Cc1ccc(Cl)c(OC)c1)C(=O)N(c1c(Cl)c(OC)cc(OC)c1Cl)C2 [Compound I-24] | 
101 to 500 | C=CC(=O)Nc1ccccc1Nc1ncc2c(n1)N(Cc1cccc(C#N)c1)C(=O)N(c1cc(OC)cc(OC)c1)C2 [Compound I-90] | 
> 1000 | C=CC(=O)Nc1ccccc1Nc1ncc2c(n1)N(CC1CCNCC1)C(=O)N(c1cc(OC)cc(OC)c1)C2 [Compound I-40] | 
< 100 | C=CC(=O)Nc1cc(N2CCN(CCOC)CC2)ccc1Nc1ncc2c(n1)N(C)C(=O)N(c1cc(OC)cc(OC)c1)C2 [Compound I-20] | 
 | C=CC(=O)Nc1ccccc1Nc1ncc2c(n1)N(C)C(=O)N(c1ccccc1)C2 [Compound I-38] | EC50 [1, 3]: > 1000 nM
< 100 | C=CC(=O)Nc1ccccc1Nc1ncc2c(n1)N(C1CC1)C(=O)N(c1c(Cl)c(OC)cc(OC)c1Cl)C2 [Compound I-23] | 
 | C=CC(=O)N[C@H]1CCCC[C@H]1Nc1ncc2c(n1)N(Cc1nccs1)C(=O)N(c1c(Cl)c(OC)cc(OC)c1Cl)C2 [Compound I-92] | EC50 [1, 3]: 101 to 500 nM
101 to 500 | C=CC(=O)NC1CCCCC1Nc1ncc2c(n1)NC(=O)N(c1c(Cl)c(OC)cc(OC)c1Cl)C2 (racemic) [Compound I-73] | 
101 to 500 | C=CC(=O)Nc1cc(C2CCN(CC)CC2)ccc1Nc1ncc2c(n1)N(C)C(=O)N(c1cc(OC)cc(OC)c1)C2 [Compound I-54] | 

From patent US10774052B2, “Heteroaryl compounds and uses thereof” (Celgene CAR LLC, priority 2013, dated 2020)
